ChEMBL document CHEMBL1201862, “PubChem BioAssay data set” (2004)
Calls of active or inactive are those of the source.

Legend:
CHO-K1 = test: Counterscreen for antagonists of the orexin 1 receptor (OX1R; HCRTR1): Homogeneous time resolved fluorescence (HTRF)-based cell-based dose response assay to identify antagonists of the parental CHO-K1 cell line. [Related pubchem assays (depositor defined):AID434989, AID435008, AID463079, AID485270, AID492963, AID492964, AID492965, AID493232, AID504699, AID504701]; format: functional; settings: Cricetulus griseus;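 note: potency for inhibition of ATP-stimulated IP1 production as antagonists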
[1] = Intein inhibitors as potential Tuberculosis drugs, a cytotoxicity screen. [Related pubchem assays (depositor defined):AID2221, AID2223, AID434968, AID435010, AID449749, AID449750, AID489010]; format: functional
Orexin receptor type 2 = Orexin receptor type 2 (Homo sapiens, UniProt O43614); test: Counterscreen assay for antagonists of the orexin 1 receptor (OX1R; HCRTR1): Homogeneous Time Resolved Fluorescence (HTRF)-based cell-based dose response assay for antagonists of the orexin 2 receptor (OX2R; HCRTR2), run by assay provider.; format: functional
Chain of Orexin receptor type 2 (O43614 whole entry): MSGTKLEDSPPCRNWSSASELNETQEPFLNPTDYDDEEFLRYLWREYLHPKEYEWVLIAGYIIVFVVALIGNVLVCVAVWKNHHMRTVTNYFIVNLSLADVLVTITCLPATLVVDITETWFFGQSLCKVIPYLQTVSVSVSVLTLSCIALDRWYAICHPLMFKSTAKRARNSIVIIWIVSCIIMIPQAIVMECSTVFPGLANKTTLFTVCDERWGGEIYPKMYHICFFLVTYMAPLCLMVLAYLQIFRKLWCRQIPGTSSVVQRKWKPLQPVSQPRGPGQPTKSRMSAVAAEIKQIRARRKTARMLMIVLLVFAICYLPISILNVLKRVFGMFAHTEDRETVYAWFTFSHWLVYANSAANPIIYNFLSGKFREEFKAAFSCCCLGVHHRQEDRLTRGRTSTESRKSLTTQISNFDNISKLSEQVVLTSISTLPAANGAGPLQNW

[2] = target: T1, Zinc finger protein mex-5 (Caenorhabditis elegans, UniProt Q9XUB2); test: MEX-5/TCR-2 RNA interaction inhibitors, dose response, biochemical, C. elegans, fluorescence polarization (AID 1960)
T1 sequence (Q9XUB2 whole entry): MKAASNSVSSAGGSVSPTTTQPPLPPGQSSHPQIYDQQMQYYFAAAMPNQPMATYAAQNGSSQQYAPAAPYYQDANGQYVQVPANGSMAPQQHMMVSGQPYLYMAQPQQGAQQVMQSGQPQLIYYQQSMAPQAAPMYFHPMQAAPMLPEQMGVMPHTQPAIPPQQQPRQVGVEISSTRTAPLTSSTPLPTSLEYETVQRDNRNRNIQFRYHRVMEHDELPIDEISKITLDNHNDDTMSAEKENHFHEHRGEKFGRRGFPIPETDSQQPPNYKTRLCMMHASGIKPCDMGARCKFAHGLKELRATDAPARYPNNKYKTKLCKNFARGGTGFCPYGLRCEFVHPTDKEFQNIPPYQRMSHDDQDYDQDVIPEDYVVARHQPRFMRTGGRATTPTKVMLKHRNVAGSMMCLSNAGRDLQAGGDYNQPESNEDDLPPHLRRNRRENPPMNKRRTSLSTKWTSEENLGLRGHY

[3] = target: Intestinal-type alkaline phosphatase (Mus musculus, UniProt P24822); test: PubChem AID 488785; format: functional
Chain of Intestinal-type alkaline phosphatase (P24822 whole entry): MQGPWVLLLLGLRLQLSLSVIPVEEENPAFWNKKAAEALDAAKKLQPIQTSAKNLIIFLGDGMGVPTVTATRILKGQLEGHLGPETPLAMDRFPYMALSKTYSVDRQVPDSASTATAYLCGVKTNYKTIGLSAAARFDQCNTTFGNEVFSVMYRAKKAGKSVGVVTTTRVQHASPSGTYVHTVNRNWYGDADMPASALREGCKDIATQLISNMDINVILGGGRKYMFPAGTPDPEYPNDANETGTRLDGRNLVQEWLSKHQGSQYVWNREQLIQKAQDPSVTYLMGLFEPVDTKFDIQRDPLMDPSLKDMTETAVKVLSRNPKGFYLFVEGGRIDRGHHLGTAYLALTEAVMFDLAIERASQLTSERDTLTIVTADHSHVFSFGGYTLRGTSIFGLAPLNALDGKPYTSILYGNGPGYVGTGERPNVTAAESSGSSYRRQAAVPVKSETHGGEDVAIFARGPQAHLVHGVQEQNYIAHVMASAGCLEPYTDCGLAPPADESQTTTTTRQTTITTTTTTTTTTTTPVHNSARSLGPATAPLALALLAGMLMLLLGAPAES

[4] = target: T2, Histone-lysine N-methyltransferase NSD2 (Homo sapiens, UniProt O96028); format: biochemical
T2 sequence (O96028 whole entry): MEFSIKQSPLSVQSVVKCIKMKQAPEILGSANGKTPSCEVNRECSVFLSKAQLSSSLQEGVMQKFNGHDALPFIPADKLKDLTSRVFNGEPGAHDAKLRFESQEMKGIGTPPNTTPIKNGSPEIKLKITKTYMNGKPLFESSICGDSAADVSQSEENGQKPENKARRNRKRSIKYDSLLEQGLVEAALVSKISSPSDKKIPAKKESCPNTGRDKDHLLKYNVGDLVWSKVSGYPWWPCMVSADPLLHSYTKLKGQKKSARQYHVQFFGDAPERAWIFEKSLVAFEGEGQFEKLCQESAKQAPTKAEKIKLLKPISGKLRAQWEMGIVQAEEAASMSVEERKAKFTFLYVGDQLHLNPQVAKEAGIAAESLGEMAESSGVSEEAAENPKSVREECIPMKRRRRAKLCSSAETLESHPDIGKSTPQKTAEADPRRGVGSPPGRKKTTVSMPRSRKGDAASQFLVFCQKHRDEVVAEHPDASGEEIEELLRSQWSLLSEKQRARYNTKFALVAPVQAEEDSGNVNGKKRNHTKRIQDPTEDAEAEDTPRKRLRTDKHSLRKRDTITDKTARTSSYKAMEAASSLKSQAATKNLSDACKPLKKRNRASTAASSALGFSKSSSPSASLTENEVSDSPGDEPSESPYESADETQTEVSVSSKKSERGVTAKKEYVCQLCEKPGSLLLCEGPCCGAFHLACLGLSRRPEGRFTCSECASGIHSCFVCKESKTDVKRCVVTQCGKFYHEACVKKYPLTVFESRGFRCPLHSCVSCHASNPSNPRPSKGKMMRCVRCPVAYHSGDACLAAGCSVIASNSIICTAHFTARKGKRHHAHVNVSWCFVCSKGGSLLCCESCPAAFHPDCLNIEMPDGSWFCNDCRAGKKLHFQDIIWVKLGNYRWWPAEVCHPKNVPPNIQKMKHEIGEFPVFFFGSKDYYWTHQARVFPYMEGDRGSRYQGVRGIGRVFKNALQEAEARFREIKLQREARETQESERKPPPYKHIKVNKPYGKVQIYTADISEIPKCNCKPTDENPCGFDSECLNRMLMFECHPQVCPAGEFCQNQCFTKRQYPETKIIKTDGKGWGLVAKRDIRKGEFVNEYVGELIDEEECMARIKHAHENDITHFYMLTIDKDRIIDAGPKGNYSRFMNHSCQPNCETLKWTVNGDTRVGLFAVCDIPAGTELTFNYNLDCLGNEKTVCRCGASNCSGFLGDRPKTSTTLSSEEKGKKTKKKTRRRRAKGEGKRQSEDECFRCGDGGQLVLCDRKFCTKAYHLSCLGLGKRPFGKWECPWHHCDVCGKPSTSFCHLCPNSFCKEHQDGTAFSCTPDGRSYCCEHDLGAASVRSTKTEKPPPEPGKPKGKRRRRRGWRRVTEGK

[5] = cytotoxicity toward NIH3T3 fibroblasts, dose response, counter-screen, cell-based, ATP luminescence, mouse fibroblasts (AID 2010); format: functional;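 note: cells exposed to compound for about 90 hours before reading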
[6] = Counterscreen for AddAB inhibitors: absorbance-based bacterial cell-based high throughput dose response assay for inhibitors of bacterial viability. [Related pubchem assays (depositor defined):AID435030, AID449728, AID449731, AID488942, AID488955, AID488956]; format: functional
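Throughout, for CC50: cells exposed to compound for 72 hours before luminescence readout.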

In the case of Cc1ccc(C(=O)OCn2ncc(Cl)c(Cl)c2=O)cc1, the IC50 (CHO-K1) is reported as > 66.2 µM (inactive), the CC50 [1] is reported as 2.85 µM (active) and the IC50 (Orexin receptor type 2) is reported as > 50 µM (inactive).

In the case of O=C(O)CC(C(=O)O)N1C(=O)/C(=C/C=C/c2ccco2)SC1=S (stereo not drawn), the EC50 [2] is reported as 23.3 µM (active), the IC50 [3] is reported as 30.4 µM (active) and the AC50 [4] is reported as 4.16 µM (active).

In the case of CCCC(=O)NC(c1cccs1)c1cc(Cl)c2cccnc2c1O (stereo not drawn), the EC50 [5] is reported as 2.61 µM (active) and the IC50 [6] is reported as > 119 µM (inactive).
